Reference: patent US20120122860A1, “SOLID FORMS OF SULFONAMIDES AND AMINO ACIDS” (Plexxikon, Inc., priority 2009, published 2012)

Key:
B-Raf V600E = B-Raf V600E (Homo sapiens, UniProt P15056, V600E); experiment: Kinase activity assay, B-Raf V600E; type: biochemical; conditions: read-out: activity toward kinase B-Raf V600E, IC50
Kdr = Kdr (Homo sapiens, UniProt P35968); experiment: Kinase activity assay, Kdr
Src = Src (Homo sapiens, UniProt P12931); experiment: Kinase activity assay, Src
A-Raf = target: T1, A-Raf (Homo sapiens, UniProt P10398); experiment: Kinase activity assay, A-Raf
T1 sequence (P10398 1-606): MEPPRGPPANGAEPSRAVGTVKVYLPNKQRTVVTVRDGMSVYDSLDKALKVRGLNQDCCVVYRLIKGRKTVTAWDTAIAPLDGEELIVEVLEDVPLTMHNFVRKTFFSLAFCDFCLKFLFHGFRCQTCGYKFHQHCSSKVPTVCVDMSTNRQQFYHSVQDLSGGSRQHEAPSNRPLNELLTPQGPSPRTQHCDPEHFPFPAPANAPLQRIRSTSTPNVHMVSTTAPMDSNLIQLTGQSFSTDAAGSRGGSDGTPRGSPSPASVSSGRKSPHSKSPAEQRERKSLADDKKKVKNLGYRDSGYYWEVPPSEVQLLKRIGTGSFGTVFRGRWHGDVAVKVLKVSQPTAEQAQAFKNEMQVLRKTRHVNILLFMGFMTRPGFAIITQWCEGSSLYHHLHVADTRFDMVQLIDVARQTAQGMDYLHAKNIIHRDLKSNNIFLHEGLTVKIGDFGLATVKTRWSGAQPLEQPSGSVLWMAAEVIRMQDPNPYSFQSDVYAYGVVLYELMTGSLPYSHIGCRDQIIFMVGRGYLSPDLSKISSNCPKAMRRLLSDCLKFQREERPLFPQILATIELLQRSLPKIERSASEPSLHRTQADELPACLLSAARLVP

C-Raf = C-Raf (Homo sapiens, UniProt P04049); experiment: Kinase activity assay, C-Raf
Sequence of C-Raf (P04049 whole entry): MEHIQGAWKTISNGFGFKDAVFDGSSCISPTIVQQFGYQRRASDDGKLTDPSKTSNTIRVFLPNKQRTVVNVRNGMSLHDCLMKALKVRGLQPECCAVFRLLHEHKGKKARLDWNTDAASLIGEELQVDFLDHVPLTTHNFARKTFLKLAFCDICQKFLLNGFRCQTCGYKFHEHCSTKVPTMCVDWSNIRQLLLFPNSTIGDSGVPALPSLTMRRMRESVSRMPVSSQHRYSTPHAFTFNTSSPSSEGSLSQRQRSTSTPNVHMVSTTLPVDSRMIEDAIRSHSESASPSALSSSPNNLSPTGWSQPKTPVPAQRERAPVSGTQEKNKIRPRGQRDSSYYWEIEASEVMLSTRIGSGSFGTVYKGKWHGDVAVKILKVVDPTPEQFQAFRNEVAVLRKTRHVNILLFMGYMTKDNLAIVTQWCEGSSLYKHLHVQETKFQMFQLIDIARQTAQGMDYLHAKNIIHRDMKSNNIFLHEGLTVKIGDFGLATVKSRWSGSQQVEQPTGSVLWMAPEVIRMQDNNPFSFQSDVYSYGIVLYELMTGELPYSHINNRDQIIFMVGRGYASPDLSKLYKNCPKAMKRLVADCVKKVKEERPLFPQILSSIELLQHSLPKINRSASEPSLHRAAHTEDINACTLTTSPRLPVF

MAP4K4 = MAP4K4 (Homo sapiens, UniProt O95819); experiment: Kinase activity assay, MAP4K4
Sequence of MAP4K4 (O95819 whole entry): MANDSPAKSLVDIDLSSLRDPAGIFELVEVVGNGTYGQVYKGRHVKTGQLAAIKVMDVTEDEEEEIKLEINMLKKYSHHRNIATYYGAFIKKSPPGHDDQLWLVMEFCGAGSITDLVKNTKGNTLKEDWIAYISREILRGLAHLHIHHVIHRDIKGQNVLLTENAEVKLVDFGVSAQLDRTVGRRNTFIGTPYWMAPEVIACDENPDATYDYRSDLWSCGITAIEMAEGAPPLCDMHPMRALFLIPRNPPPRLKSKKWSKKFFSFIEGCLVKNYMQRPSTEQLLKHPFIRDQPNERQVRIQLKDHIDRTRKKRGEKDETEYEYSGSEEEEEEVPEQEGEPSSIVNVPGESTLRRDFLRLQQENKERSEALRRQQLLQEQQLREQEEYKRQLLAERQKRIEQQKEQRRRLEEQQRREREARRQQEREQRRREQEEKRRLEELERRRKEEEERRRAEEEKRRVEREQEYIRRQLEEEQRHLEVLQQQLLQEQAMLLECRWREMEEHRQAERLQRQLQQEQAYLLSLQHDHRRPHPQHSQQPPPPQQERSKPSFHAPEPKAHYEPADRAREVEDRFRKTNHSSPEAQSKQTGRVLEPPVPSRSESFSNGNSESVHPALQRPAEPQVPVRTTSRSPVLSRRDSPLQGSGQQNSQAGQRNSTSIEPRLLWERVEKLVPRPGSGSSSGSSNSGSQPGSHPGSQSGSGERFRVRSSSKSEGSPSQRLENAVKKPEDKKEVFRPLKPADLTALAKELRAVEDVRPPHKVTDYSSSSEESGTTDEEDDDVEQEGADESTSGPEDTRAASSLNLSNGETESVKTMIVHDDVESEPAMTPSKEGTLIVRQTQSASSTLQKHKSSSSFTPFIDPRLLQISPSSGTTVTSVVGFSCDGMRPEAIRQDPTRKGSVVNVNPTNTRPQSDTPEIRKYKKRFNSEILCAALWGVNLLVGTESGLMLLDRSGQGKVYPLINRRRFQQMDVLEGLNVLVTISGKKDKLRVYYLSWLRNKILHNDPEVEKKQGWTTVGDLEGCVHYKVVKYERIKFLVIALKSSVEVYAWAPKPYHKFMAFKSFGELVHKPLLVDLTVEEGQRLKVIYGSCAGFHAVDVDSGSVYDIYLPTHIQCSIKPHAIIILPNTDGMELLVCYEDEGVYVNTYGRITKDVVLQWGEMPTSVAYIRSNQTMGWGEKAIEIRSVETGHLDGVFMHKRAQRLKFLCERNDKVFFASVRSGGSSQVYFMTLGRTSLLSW

B-Raf = B-Raf (Homo sapiens, UniProt P15056); experiment: Kinase activity assay, B-Raf; type: biochemical; conditions: read-out: activity toward kinase B-Raf, IC50
Sequence of B-Raf (P15056 whole entry): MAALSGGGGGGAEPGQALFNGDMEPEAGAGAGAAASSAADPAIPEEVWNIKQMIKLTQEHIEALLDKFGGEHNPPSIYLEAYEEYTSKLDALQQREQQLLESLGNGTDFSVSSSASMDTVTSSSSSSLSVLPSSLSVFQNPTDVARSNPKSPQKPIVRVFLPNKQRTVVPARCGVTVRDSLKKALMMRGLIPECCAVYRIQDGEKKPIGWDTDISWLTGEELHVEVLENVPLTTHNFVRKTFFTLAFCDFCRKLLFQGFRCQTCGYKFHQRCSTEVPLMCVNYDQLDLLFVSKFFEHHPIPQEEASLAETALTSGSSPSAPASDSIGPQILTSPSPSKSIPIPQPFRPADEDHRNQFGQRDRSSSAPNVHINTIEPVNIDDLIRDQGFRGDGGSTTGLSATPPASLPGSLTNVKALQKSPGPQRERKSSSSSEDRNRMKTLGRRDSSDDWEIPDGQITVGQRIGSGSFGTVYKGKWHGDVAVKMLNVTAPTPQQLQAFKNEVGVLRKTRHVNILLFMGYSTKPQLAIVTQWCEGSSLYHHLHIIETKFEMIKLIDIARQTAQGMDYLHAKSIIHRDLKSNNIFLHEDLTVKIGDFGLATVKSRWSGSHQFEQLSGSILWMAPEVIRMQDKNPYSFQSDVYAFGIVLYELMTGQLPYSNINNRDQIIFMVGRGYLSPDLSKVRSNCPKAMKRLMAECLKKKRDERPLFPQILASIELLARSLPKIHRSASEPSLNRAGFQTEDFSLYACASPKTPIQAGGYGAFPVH

Fms = Fms (Homo sapiens, UniProt P07333); experiment: Kinase activity assay, Fms
Sequence of Fms (P07333 20-972): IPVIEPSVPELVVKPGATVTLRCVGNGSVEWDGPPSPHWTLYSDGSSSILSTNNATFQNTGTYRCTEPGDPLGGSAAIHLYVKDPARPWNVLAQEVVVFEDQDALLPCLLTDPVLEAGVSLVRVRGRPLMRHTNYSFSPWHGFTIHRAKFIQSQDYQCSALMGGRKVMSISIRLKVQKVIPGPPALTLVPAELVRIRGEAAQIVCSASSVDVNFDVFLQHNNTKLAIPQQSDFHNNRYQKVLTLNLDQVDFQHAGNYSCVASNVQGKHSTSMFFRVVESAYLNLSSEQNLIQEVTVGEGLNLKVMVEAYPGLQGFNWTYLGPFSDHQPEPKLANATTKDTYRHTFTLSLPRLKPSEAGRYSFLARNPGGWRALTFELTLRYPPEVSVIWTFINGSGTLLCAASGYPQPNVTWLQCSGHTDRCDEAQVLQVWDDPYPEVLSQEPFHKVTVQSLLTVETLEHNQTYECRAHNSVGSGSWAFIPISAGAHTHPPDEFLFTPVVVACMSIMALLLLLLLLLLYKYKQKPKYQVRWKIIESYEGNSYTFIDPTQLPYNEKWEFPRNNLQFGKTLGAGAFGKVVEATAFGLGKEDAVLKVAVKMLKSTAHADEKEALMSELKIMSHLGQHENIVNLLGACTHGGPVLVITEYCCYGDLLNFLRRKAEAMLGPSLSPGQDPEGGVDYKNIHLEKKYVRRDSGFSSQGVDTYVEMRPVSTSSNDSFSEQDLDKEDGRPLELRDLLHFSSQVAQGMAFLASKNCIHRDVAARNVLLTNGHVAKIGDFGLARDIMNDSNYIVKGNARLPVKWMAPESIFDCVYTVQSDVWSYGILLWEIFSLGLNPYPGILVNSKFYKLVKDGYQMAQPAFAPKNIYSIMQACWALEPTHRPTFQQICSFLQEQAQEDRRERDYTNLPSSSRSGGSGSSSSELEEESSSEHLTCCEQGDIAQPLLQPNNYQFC

Kit = Kit (Homo sapiens, UniProt P10721); experiment: Kinase activity assay, Kit

Measured: IC50

Sequence of Kdr (P35968 20-1356): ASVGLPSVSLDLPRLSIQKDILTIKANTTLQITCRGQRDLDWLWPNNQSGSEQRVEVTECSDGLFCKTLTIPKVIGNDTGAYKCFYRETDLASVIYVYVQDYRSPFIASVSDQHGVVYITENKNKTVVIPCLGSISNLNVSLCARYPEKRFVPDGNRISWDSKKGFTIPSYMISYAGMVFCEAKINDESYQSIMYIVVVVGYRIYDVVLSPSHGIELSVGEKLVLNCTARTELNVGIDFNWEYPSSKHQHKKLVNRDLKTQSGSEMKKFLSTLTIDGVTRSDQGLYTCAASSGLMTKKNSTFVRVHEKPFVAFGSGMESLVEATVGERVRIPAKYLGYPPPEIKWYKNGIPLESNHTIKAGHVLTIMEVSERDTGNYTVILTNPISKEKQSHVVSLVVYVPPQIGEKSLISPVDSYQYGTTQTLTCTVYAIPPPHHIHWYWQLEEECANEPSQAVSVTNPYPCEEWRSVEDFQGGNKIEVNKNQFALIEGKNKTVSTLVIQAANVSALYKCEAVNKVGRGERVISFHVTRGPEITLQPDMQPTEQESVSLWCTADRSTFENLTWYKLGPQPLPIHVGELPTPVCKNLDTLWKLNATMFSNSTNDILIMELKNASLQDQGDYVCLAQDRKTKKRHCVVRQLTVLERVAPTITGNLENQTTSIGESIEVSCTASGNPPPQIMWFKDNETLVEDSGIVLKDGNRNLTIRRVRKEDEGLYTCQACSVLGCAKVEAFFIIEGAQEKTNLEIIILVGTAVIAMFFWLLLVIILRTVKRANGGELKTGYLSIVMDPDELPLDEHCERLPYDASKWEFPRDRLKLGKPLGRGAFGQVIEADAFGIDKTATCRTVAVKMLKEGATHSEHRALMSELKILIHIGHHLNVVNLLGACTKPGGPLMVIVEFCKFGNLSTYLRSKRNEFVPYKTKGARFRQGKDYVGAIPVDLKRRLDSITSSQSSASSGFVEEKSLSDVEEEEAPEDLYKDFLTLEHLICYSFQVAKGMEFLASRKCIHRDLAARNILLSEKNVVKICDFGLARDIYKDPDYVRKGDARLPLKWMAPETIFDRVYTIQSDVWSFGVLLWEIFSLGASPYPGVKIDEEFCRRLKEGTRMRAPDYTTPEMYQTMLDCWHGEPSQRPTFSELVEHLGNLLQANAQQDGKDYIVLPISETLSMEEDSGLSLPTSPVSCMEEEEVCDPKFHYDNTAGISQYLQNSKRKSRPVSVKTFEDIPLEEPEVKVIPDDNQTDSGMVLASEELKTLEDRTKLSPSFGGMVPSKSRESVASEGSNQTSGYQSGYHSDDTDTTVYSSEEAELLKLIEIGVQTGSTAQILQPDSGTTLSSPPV
Sequence of B-Raf V600E (P15056 whole entry V600E): as the sequence (P15056 whole entry) above, with V600E counted along it

O=C(c1c(F)ccc(NS(=O)(=O)c2ncn[nH]2)c1F)c1c[nH]c2ncc(Cl)cc12 [P-2062, 2H-[1,2,4]Triazole-3-sulfonic acid [3-(5-chloro-1H-pyrrolo[2,3-b]pyridine-3-carbonyl)-2,4-difluoro-phenyl]-amide]
not listed: B-Raf | Fms | Kit
≤ 10 µM: all other assays above

CC(C)CS(=O)(=O)Nc1ccc(F)c(C(=O)c2c[nH]c3ncc(Cl)cc23)c1F [P-2304, 2-Methyl-propane-1-sulfonic acid [3-(5-chloro-1H-pyrrolo[2,3-b]pyridine-3-carbonyl)-2,4-difluoro-phenyl]-amide]
not listed: MAP4K4
≤ 10 µM: all other assays above

CCS(=O)(=O)Nc1ccc(F)c(C(=O)c2c[nH]c3ncc(Cl)cc23)c1F [P-2274, Ethanesulfonic acid [3-(5-chloro-1H-pyrrolo[2,3-b]pyridine-3-carbonyl)-2,4-difluoro-phenyl]-amide]
not listed: Src | Fms
≤ 10 µM: all other assays above

COc1cnc2[nH]cc(C(=O)c3c(F)ccc(NS(=O)(=O)C(C)C)c3F)c2c1 [P-2273, Propane-2-sulfonic acid [2,4-difluoro-3-(5-methoxy-1H-pyrrolo[2,3-b]pyridine-3-carbonyl)-phenyl]-amide]
not listed: MAP4K4
≤ 10 µM: all other assays above

CCCS(=O)(=O)Nc1ccc(F)c(C(=O)c2c[nH]c3ncc(C(F)(F)F)cc23)c1F [P-2182, Propane-1-sulfonic acid [2,4-difluoro-3-(5-trifluoromethyl-1H-pyrrolo[2,3-b]pyridine-3-carbonyl)-phenyl]-amide]
not listed: Src | Fms
≤ 10 µM: all other assays above

N#Cc1cnc2[nH]cc(C(=O)c3c(F)ccc(NS(=O)(=O)c4ncn[nH]4)c3F)c2c1 [P-2064, 2H-[1,2,4]Triazole-3-sulfonic acid [3-(5-cyano-1H-pyrrolo[2,3-b]pyridine-3-carbonyl)-2,4-difluoro-phenyl]-amide]
≤ 10 µM: B-Raf V600E | Kdr | A-Raf | C-Raf | MAP4K4

O=C(c1c(F)ccc(NS(=O)(=O)c2ncn[nH]2)c1F)c1c[nH]c2nccc(Cl)c12 [P-2066, 2H-[1,2,4]Triazole-3-sulfonic acid [3-(4-chloro-1H-pyrrolo[2,3-b]pyridine-3-carbonyl)-2,4-difluoro-phenyl]-amide]
not listed: Src | Fms | Kit
≤ 10 µM: all other assays above

COc1cnc2[nH]cc(C(=O)c3c(F)ccc(NS(C)(=O)=O)c3F)c2c1 [P-2288, N-[2,4-Difluoro-3-(5-methoxy-1H-pyrrolo[2,3-b]pyridine-3-carbonyl)-phenyl]-methanesulfonamide]
not listed: Src | B-Raf | Fms
≤ 10 µM: all other assays above

N#Cc1cnc2[nH]cc(C(=O)c3c(F)ccc(NS(=O)(=O)C4CCCCC4)c3F)c2c1 [P-2366, Cyclohexanesulfonic acid [3-(5-cyano-1H-pyrrolo[2,3-b]pyridine-3-carbonyl)-2,4-difluoro-phenyl]-amide]
not listed: Kdr | Src | Fms
≤ 10 µM: all other assays above

CS(=O)(=O)Nc1ccc(F)c(C(=O)c2c[nH]c3ncc(Cl)cc23)c1F [P-2291, N-[3-(5-Chloro-1H-pyrrolo[2,3-b]pyridine-3-carbonyl)-2,4-difluoro-phenyl]-methanesulfonamide]
not listed: Src | B-Raf | Fms
≤ 10 µM: all other assays above

Cc1cnc2[nH]cc(C(=O)c3c(F)ccc(NS(C)(=O)=O)c3F)c2c1 [P-2289, N-[2,4-Difluoro-3-(5-methyl-1H-pyrrolo[2,3-b]pyridine-3-carbonyl)-phenyl]-methanesulfonamide]
not listed: Src | B-Raf | Fms
≤ 10 µM: all other assays above

Cc1cnc2[nH]cc(C(=O)c3c(F)ccc(NS(=O)(=O)c4ncn[nH]4)c3F)c2c1 [P-2065, 2H-[1,2,4]Triazole-3-sulfonic acid [2,4-difluoro-3-(5-methyl-1H-pyrrolo[2,3-b]pyridine-3-carbonyl)-phenyl]-amide]
not listed: B-Raf | Fms | Kit
≤ 10 µM: all other assays above

O=C(c1c(F)ccc(NS(=O)(=O)C(F)(F)F)c1F)c1c[nH]c2ncc(-c3ccc(Cl)cc3)cc12 [P-2343, N-{3-[5-(4-Chloro-phenyl)-1H-pyrrolo[2,3-b]pyridine-3-carbonyl]-2,4-difluoro-phenyl}-C,C,C-trifluoro-methanesulfonamide]
not listed: MAP4K4
≤ 10 µM: all other assays above

Cc1cnc2[nH]cc(C(=O)c3c(F)ccc(NS(=O)(=O)CC(F)(F)F)c3F)c2c1 [P-2337, 2,2,2-Trifluoro-ethanesulfonic acid [2,4-difluoro-3-(5-methyl-1H-pyrrolo[2,3-b]pyridine-3-carbonyl)-phenyl]-amide]
not listed: B-Raf | Fms | Kit
≤ 10 µM: all other assays above

CCCS(=O)(=O)Nc1ccc(F)c(C(=O)c2c[nH]c3ncc(CN4CCOCC4)cc23)c1F [P-2244, Propane-1-sulfonic acid [2,4-difluoro-3-(5-morpholin-4-ylmethyl-1H-pyrrolo[2,3-b]pyridine-3-carbonyl)-phenyl]-amide]
≤ 10 µM: B-Raf | B-Raf V600E | A-Raf | C-Raf | MAP4K4

Cc1cnc2[nH]cc(C(=O)c3c(F)ccc(NS(=O)(=O)C4CCC4)c3F)c2c1 [P-2362, Cyclobutanesulfonic acid [2,4-difluoro-3-(5-methyl-1H-pyrrolo[2,3-b]pyridine-3-carbonyl)-phenyl]-amide]
≤ 10 µM: B-Raf V600E | Kdr | A-Raf | C-Raf | MAP4K4
